# The OPERA property sets (Mansouri et al. 2018)
# Details: not given
SMILES,logP,solubility [mM]
COC1=C(OC)C(=O)C(OC)=C(OC)C1=O,0.41,
CC1COCc2cc3c(cc21)C(C)(C)C(C)C3(C)C (stereo not drawn),5.9,
Cc1ncc(CO)c(C=O)c1O,,2990
CC(=O)OCn1ncc2c(O)ncnc21,-0.35,
C=CC(=O)NCCN1CCOCC1,-0.55,
Clc1c(Cl)c(Cl)c2c(Cl)c(Cl)c(Cl)c(Cl)c2c1Cl,8.5,1.98e-07
Cc1cc(Cl)ccc1OC(C)C(=O)O (stereo not drawn),3.13,
CSc1nc(N)nc(C(Cl)(Cl)Cl)n1,3.12,
CC(=O)NCCc1c[nH]c2ccccc12,1.41,
N[C@@H]1[C@H]2CN(c3nc4c(cc3F)c(=O)c(C(=O)O)cn4-c3ccc(F)cc3F)C[C@@H]12,0.31,
CCCC(C)CCC(C)=O (stereo not drawn),2.92,
Cc1nc(N)c2ncn([C@@H]3O[C@H](CO)C[C@@H]3F)c2n1,0.12,
CC1(CCl)C2CC(Cl)(Cl)C1(C(Cl)Cl)CC2(Cl)Cl (stereo not drawn),5.49,
C[C@H](CCC(=O)O)[C@H]1CC[C@H]2[C@@H]3[C@H](O)C[C@@H]4C[C@H](O)CC[C@]4(C)[C@H]3C[C@H](O)[C@]12C,2.02,
c1ccc(CNc2[nH]cnc3ncnc2-3)cc1,1.57,
Cl.Cl.O=C1c2c(O)ccc(O)c2C(=O)c2c(NCCNCCO)ccc(NCCNCCO)c21,,14.5
Nc1nc(NC(=O)C(F)(F)C(F)(F)C(F)(F)F)n[nH]1,1.54,
CC(C)CCCCCCCOP(=O)(Oc1ccccc1)Oc1ccccc1,5.44,

SMILES,logP,solubility [mM]
CC1=CC(=NNC(=N)N)C=CC1=NNC(N)=S,1.66,
COC(=O)CCCCC(=O)OC,,34.4
NS(=O)(=O)c1cc2cc(CNCCO)sc2s1,-0.72,
O=[N+]([O-])c1c(Cl)ncnc1Cl,2.29,
CCNc1nc(NC(C)(C)C)nc(OC)n1,3.1,
BrC=C(Br)Br,3.2,
CCCCCCCCCCCC,6.1,
CN(C)C(N)=S,-0.43,
Brc1cccc(Oc2ccc(Br)c(Br)c2Br)c1,6.05,
O=[N+]([O-])c1ccc(Oc2c(Cl)cc(Cl)cc2Cl)cc1,4.97,
Clc1ccc(Nc2cc3nc4ccccc4n(-c4ccc(Cl)cc4)c-3cc2=NCCCN2CCCCC2)cc1,8.18,
CCCCCOC(=O)c1ccccc1C(=O)OCCCCC,5.62,
N=C(N)NN=Cc1cccc([N+](=O)[O-])c1,0.01,
O=C1CCCC1,0.38,
CNc1ncnc2c1ncn2C1OC(CO)CC1F (stereo not drawn),0.27,
Cc1ccc(OP(=O)(Oc2ccc(C)cc2)Oc2ccc(C)cc2)cc1,,0.000814
O=C1CCC(=O)N1c1cc(Cl)cc(Cl)c1,1.4,
CC1=CC(=O)C(C)=C(C)C1=O,1.82,

# The next lines start with the values.
logP,solubility [mM],SMILES
3.96,,CCCCCCOC(=O)c1ccc(N)cc1
2.93,,Cc1cc(OCCN(C)C)c(C(C)C)cc1O
2.95,,CCOC(=O)c1ccccc1O
2.72,,Cc1nc(NCCCO)c(C#N)cc1-c1ccccc1
3.51,,CCCCCCOC(=O)c1cccnc1
1.98,,Cc1ccccc1NCc1cnc2nc(N)nc(N)c2c1C
4.3,,CCCCC(OC(Cc1ccccc1)C(=O)N1CCC(OCOC)CC1)C(=O)NC(CC1CCCCC1)C(O)CC(C(=O)NCCCNc1n[nH]c(N)n1)C(C)C (stereo not drawn)
,0.626,Cc1cccc(C)c1C
4.06,,Oc1cccc(-c2ccccc2O)c1
2.03,,Cc1c(CNc2ccc(Cl)cc2)cnc2nc(N)nc(N)c12
7.2,,Cc1c(Cl)ccc(Cc2c(Cl)cccc2Cl)c1Cl
2.69,,O=C(CS(=O)(=O)c1ccccc1)c1ccc(Cl)cc1
2.18,,CC(=NNC(N)=Nc1ccccc1)c1ccccc1
-0.41,,CC1=NS(=O)(=O)c2cnccc2N1
2.86,,COc1ccc(-c2cc(C#N)c(Cl)nc2C)cc1OC
2.17,,COc1ccc(C(=O)CCCC(=O)O)cc1Cl

logP,solubility [mM],SMILES
,2470,O=C(O)c1ccccc1S(=O)(=O)O
1.65,,CCCC(O)CC (stereo not drawn)
,3600,Cc1ccc(S(=O)(=O)O)cc1
2.29,,Cc1ccc(C)c(NCc2cnc3nc(N)nc(N)c3c2C)c1
2.18,,COc1ccc(C(=O)CS(=O)(=O)c2ccccc2)cc1
3.6,,CCOC(=O)c1ccc(OCC)cc1
1.92,,CNS(=O)(=O)c1ccc(Cl)cc1
1.94,,COc1ccc(C=[N+]([O-])c2ccccc2)cc1
3.37,,CCC(O)(C(=O)O)c1ccc(CC(C)C)cc1 (stereo not drawn)
1.74,,CS(=O)(=O)c1cccc2ccccc12
3.18,,CC(C)CC(=O)Oc1ccccc1
4.25,,Cc1cc(OCCNCC2CC(=O)c3ccccc3C2=O)c(C(C)C)cc1O (stereo not drawn)
1.12,,O=C(OCCO)c1ccccc1
1.46,,CC(=O)c1cccc(NCc2cnc3nc(N)nc(N)c3c2C)c1
5.66,,c1ccc2nc3c4ccccc4c4ccccc4c3cc2c1
0.39,,CNC(=O)NCCn1nc(-c2ccccc2)ccc1=O

# Same assay, conditions: 20 °C
row,solubility [mM],SMILES
1,0.594,C/C=C/CCC
2,99,CCc1ccc(C)nc1
3,453,CCC(CO)[N+](=O)[O-] (stereo not drawn)
4,34.7,CCSCC

row,SMILES,solubility [mM]
1,CC(C)OC(=O)c1cc(-c2nn(C)c(C(F)(F)F)c2Br)c(F)cc1Cl,0.000119
2,N#Cc1ccncc1,384

# Same assay, conditions: 22 °C
row,SMILES,solubility [mM]
1,O=[N+]([O-])c1ccc(Oc2c(Cl)cc(Cl)cc2Cl)cc1,0.0024

# Same assay, conditions: 24 °C
row,SMILES,solubility [mM]
1,CN(Cc1ccccc1)N=O,30

# Same assay, conditions: 25 °C
row,SMILES,solubility [mM]
1,CC1COCc2cc3c(cc21)C(C)(C)C(C)C3(C)C (stereo not drawn),0.00677
2,CCC(C)=NO,1150
3,N[C@@H]1[C@H]2CN(c3nc4c(cc3F)c(=O)c(C(=O)O)cn4-c3ccc(F)cc3F)C[C@@H]12,0.0295
4,CCCCCCCCCCCCCC,1.97e-05
5,CCOC=O,1190
6,CCCCO[N+](=O)[O-],9.4
7,Nc1ccc(-c2ccc(N)c(Cl)c2)cc1Cl,0.0122
8,ClC/C=C/CCl,5.27
9,C=C(C)C(=O)OCC(C)C,9.14
10,Cc1ccc2cc3c(ccc4ccccc43)c3c2c1CC3,1.08e-05
11,COC(CN(C)C(=O)Nc1nnc(C(C)(C)C)s1)OC,13.6
12,C=C(C)C(=O)OC(C)(C)C,7.03
13,CN(C)c1ccc(N=Nc2ccccc2)cc1,0.00102

# Now from value to compound:
row,solubility [mM],SMILES
1,50.3,O=C(O)c1ccc[n+]([O-])c1
2,0.0372,CCOc1nc(F)cc2nc(S(=O)(=O)Nc3c(Cl)cccc3C(=O)OC)nn12
3,0.000312,Clc1ccc(C(c2ccccc2Cl)C(Cl)Cl)cc1 (stereo not drawn)
4,63.2,COCCc1ccc(OCC(O)CNC(C)C)cc1 (stereo not drawn)
5,0.00398,c1ccc2nc(-c3ccc4ccccc4n3)ccc2c1
6,0.016,O=[N+]([O-])c1ccc(N=Nc2ccc(O)cc2)cc1
7,43.8,CC(O)c1ccccc1 (stereo not drawn)

# Same assay, conditions: 25.0 °C
row,SMILES,log10 OH rate constant (cm³/molecule/s)
1,CC(Br)Br,-12.6
2,ClCBr,-13.1
3,C=C(C)C(=O)OC,-10.6
4,CCCCOCOCCCC,-10.5
5,CCBr,-12.5
6,C=COC(C)=O,-10.6
7,CC(=O)CC1C(CC=O)C1(C)C (stereo not drawn),-10.3
8,CCNC(=O)OC,-11
9,COC(F)(F)C(F)F,-12.7
10,Oc1cccc2ccccc12,-9.26
11,COC(=O)CCCCC(=O)OC,-11.1
12,CCCc1c(F)c(F)c(F)c(F)c1F,-11.5
13,CCOC(=O)NC,-11.1
14,FC(F)OC(F)C(F)(F)F (stereo not drawn),-14.4
15,CCCBr,-11.9
16,OCC(F)(F)C(F)(F)C(F)(F)F,-13
